This assay has as its target T1, CK1α (casein kinase Iα) (Homo sapiens, UniProt P48729).
T1 sequence (P48729 2-337): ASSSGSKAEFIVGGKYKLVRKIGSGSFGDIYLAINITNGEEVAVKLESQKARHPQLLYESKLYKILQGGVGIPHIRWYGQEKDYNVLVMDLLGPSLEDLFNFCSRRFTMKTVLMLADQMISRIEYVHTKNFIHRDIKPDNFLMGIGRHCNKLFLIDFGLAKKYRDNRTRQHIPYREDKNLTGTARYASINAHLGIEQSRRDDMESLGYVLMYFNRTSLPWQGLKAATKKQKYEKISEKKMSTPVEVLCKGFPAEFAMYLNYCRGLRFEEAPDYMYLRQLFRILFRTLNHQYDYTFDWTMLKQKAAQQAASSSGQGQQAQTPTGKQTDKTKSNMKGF
Description: TR-FRET. Format: biochemical. Background: In TR-FRET formats the signal depends on donor and acceptor labels being close together.

One may read the IC50 as the concentration that gives 50% inhibition.

Compound `CCCCCc1cc(/C=C2/N=C(c3ccc[nH]3)C=C2OC)[nH]c1C` [NSC 47147] registered a concentration for half-maximal inhibition (IC50) of 6 µM.

The record behind these values is article PMC3191281 (2011).
